The structures appear in SMILES notation.

The experiment deals with T1, KRAS (aa 1-169) G12C, C51S, C80L, C118S (Homo sapiens, UniProt P01116, C118S/C51S/C80L/G12C).
T1 construct: The KRAS (aa 1-169) G12C, C51S, C80L, C118S with a His-tag; made in house
Nature of the experiment: KRAS G12C SOS1-mediated nucleotide exchange / GST-cRaf RBD binding FRET assay. The format is biochemical. Particulars: GDP-loaded KRAS G12C pre-incubated with compound at 24° C. for 3 hrs; SOS1, GTPγS and GST-cRaf RBD added; FRET 665 nm/620 nm. How it is done: Biochemical Functional Assay:
The KRAS (aa 1-169) G12C, C51S, C80L, C118S with a His-tag was expressed, purified and loaded with GDP in house. All protein and substrate solutions were prepared in assay buffer containing 25 mM HEPES pH7.5, 10 mM MgCl2, and 0.01% Triton X-100. Purified GDP-loaded KRAS (aa 1-169) G12C, C51S, C80L, C118S protein was pre-incubated with a serially diluted compound at 24° C. for 3 hrs. Purified SOS1 (aa 564-1049) protein, GTPγS (Sigma) and GST-cRaf RBD (aa 1-149) were then added to each well and incubated at 24° C. for additional 3 hrs. […] Following the incubation, Mab Anti-6HIS-Tb cryptate (Cisbio) and Mab Anti GST-XL665 (Cisbio) were added and further incubated at 24° C. for 3 hrs. The binding interaction between active GTPγS KRAS G12C and GST-cRaf RBD brings the Tb and XL665 into close proximity enabling an increased FRET signal (Ex337 nm, Em665 nm/620 nm). The inhibition percentage of nucleotide exchange reaction in presence of increasing concentrations of compounds was calculated based on the ratio of fluorescence at 665 nm to that at 620 nm detected on a BMG PHERAstar FSX instrument. The IC50 value of each compound was calculated from fitting the data to the four-parameter logistic model by Dotmatics.

T1 sequence (P01116 1-169 isoform P01116-2 G12C/C51S/C80L/C118S): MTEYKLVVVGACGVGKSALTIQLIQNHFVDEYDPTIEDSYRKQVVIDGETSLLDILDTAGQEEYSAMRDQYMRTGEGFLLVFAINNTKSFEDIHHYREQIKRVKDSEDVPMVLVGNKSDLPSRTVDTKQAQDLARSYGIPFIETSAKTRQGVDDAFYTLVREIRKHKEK

As to `C=CC(=O)N1CCN(c2nc(OC[C@@H]3CCCN3C)nc3c2CN(C(=O)c2cccc4cccc(C5CC5)c24)C3)C[C@@H]1CC#N` [Example 35, 2-((S)-1-acryloyl-4-(6-(8-cyclopropyl-1-naphthoyl)-2-(((S)-1-methylpyrrolidin-2-yl)methoxy)-6,7-dihydro-5H-pyrrolo[3,4-d]pyrimidin-4-yl)piperazin-2-yl)acetonitrile], the IC50 is 256 nM.

Regarding `C=CC(=O)N1CCN(c2nc(OC[C@@H]3CCCN3C)nc3c2CN(C(=O)c2c(O)cccc2F)C3)C[C@@H]1CC#N` [Example 36, 2-((S)-1-acryloyl-4-(6-(2-fluoro-6-hydroxybenzoyl)-2-(((S)-1-methylpyrrolidin-2-yl)methoxy)-6,7-dihydro-5H-pyrrolo[3,4-d]pyrimidin-4-yl)piperazin-2-yl)acetonitrile], the IC50 is 238 nM.

For the compound `C=CC(=O)N1CCN(c2nc(OC[C@@H]3CCCN3C)nc3c2CN(C(=O)c2cccc(C)c2Cl)C3)C[C@@H]1CC#N` [Example 37, 2-((S)-1-acryloyl-4-(6-(2-chloro-3-methylbenzoyl)-2-(((S)-1-methylpyrrolidin-2-yl)methoxy)-6,7-dihydro-5H-pyrrolo[3,4-d]pyrimidin-4-yl)piperazin-2-yl)acetonitrile], the IC50 was 27.9 nM.

In the case of `C=CC(=O)N1CCN(c2nc(OC[C@@H]3CCCN3C)nc3c2CN(C(=O)Nc2cccc4ccccc24)C3)C[C@@H]1CC#N` [Example 38, 4-((S)-4-acryloyl-3-(cyanomethyl)piperazin-1-yl)-2-(((S)-1-methylpyrrolidin-2-yl)methoxy)-N-(naphthalen-1-yl)-5,7-dihydro-6H-pyrrolo[3,4-d]pyrimidine-6-carboxamide], the IC50 was determined as 1570 nM.

For `C=CC(=O)N1CCN(c2nc(OC[C@@H]3CCCN3C)nc3c2CN(C2c4ccccc4-c4ccccc42)C3)C[C@@H]1CC#N` [Example 40, 2-((S)-4-(6-(9H-fluoren-9-yl)-2-(((S)-1-methylpyrrolidin-2-yl)methoxy)-6,7-dihydro-5H-pyrrolo[3,4-d]pyrimidin-4-yl)-1-acryloylpiperazin-2-yl)acetonitrile], the IC50 was 1510 nM.

For the compound `C=CC(=O)N1CCN(c2nc(OC[C@@H]3CCCN3C)nc3c2CN(Cc2c(C)ccc4[nH]ncc24)C3)C[C@@H]1CC#N` [Example 41, 2-((S)-1-acryloyl-4-(6-((5-methyl-1H-indazol-4-yl)methyl)-2-(((S)-1-methylpyrrolidin-2-yl)methoxy)-6,7-dihydro-5H-pyrrolo[3,4-d]pyrimidin-4-yl)piperazin-2-yl)acetonitrile], the IC50 stood at 77.2 nM.

In the case of `C=CC(=O)N1CCN(c2nc(OC[C@@H]3CCCN3C)nc3c2CN(Cc2c(O)ccc4ccccc24)C3)C[C@@H]1CC#N` [Example 42, 2-((S)-1-acryloyl-4-(6-((2-hydroxynaphthalen-1-yl)methyl)-2-(((S)-1-methylpyrrolidin-2-yl)methoxy)-6,7-dihydro-5H-pyrrolo[3,4-d]pyrimidin-4-yl)piperazin-2-yl)acetonitrile], the IC50 was 9980 nM.

In the case of `C=CC(=O)N1CCN(c2nc(OC[C@@H]3CCCN3C)nc3c2CN(Cc2ccccc2)C3=O)C[C@@H]1CC#N` [Example 44], the IC50 came out at 9010 nM.

`C=CC(=O)N1CCN(c2nc(OC[C@@H]3CCCN3C)nc3c2CN(C2CCc4ccccc42)C3)C[C@@H]1CC#N` (some centres unmarked) [Example 45]: the IC50 came to 12.6 nM.

`C=CC(=O)N1CCN(c2nc(OC[C@@H]3CCCN3C)nc3c2CN(C(=O)c2cc(O)ccc2F)C3)C[C@@H]1CC#N` [Example 46]: the IC50 was 172 nM.

Regarding `C=CC(=O)N1CCN(c2nc(OC[C@@H]3CCCN3C)nc3c2CN(C(=O)c2cc(O)ccc2C)C3)C[C@@H]1CC#N` [Example 47], the IC50 was found to be 102 nM.

For `C=CC(=O)N1CCN(c2nc(OC[C@@H]3CCCN3C)nc3c2CN(C(=O)c2cc(N)cc4ccccc24)C3)C[C@@H]1CC#N` [Example 50], the IC50 worked out at 6.16 nM.

As for `C=CC(=O)N1CCN(c2nc(OC[C@@H]3C[C@@H](O)CN3C)nc3c2CN(C2Cc4cccc5cccc2c45)C3)C[C@@H]1CC#N` (some centres unmarked) [Example 51], the IC50 is 16.1 nM.

As for `C=CC(=O)N1CCN(c2nc(OC[C@@H]3CCCN3C)nc3c2CN(C(=O)c2cccc4cccc(Br)c24)C3)C[C@@H]1CC#N` [Example 52], the IC50 is 8.51 nM.

In the case of `C=CC(=O)N1CCN(c2nc(OC[C@@H]3CCCN3C)nc3c2CN(Cc2cccc(C)c2Cl)C3)C[C@@H]1CC#N` [Example 53], the IC50 came to 14.9 nM.

As to `C=CC(=O)N1CCN(c2nc(OC[C@@H]3CCCN3C)nc3c2CN(C2Cc4cccc5cc(O)cc2c45)C3)C[C@@H]1CC#N` (some centres unmarked) [Example 55], the IC50 is less than 5.1 nM.

Regarding `C=CC(=O)N1CCN(c2nc(OC[C@@H]3CCCN3C)nc3c2CN(C(=O)c2cccc4cccc(O)c24)C3)C[C@@H]1CC#N` [Example 56], the 50% inhibitory concentration (IC50) is 941 nM.

As usually defined, the IC50 is the concentration that gives 50% inhibition.

The record behind these values is patent US12630552B2, “Inhibitors of KRAS G12C” (BEIGENE, LTD., priority 2019, dated 2026).
